System: Exophiala dermatitidis CA01
Assay: Broth microdilution chequerboard analysis of Lynovex (NM001) in combination with clinical antifungals
Format: cell-based
Settings: for Antifungal MIC100 / Antifungal MIC50: antifungal in isolation; for Antifungal MIC100 / Antifungal MIC100 in Combination: 72 h; for Antifungal MIC100 / Antifungal MIC50 / Antifungal MIC100 in Combination / Antifungal MIC50 in Combination: 35° C.; for FICI: antifungal with Lynovex (NM001), <0.5 Synergy, 0.5-1 Additive, >1 Indifference; for Antifungal MIC100 in Combination / Antifungal MIC50 in Combination: in combination with Lynovex (NM001)
Method: The aim of the experiment was to determine the effect of Lynovex (NM001) on the antifungal drug susceptibility of Exophiala dermatitidis CA01. Microtitre plates were prepared following CLSI recommendations for broth microdilution chequerboard method. These plates contained a serial doubling dilution of Lynovex (NM001) combined with serial doubling dilutions of antifungals drugs; Fluconazole, Itraconazole, Caspofungin and Amphotericin B. […] These were incubated at 35° C. and read at 72 h, 96 h, 120 h and 144 h on the BioTek plate reader. […] Three independent E. dermatitidis CA01 cultures were grown on PDA slope for 6 days at 35° C. • 7. Cultures were removed from incubator. 2 ml sterile 0.15M NaCl added to the overnight culture and cells harvested from the surface of the agar. Cells placed in fresh bijou tube. • 8. The cultures were allowed to rest for up to 10 minutes, allowing any hyphae to settle to the bottom. The top layer of conidia was removed into fresh bijou. Hyphae were discarded. • 9. […] This is continued to F12 where 100 μl is removed and discarded. • f. This dilution series was repeated in rows G-H for the remaining 2 cultures • g. Plate read at OD530 on BioTek • h. […] This preparation step occurs in two parts. First, Lynovex (NM001) and antifungals are serially diluted, down and across microtitre plates, respectively. Equal volumes of Lynovex and antifungal are then combined in a fresh microtitre plate, prior to inoculation. […] Stock solutions of Lynovex and antifungals were prepared at 4× desired concentrations. The plate layout at the end of this protocol is the final concentration in the plate following the combination of Lynovex and antifungals and the addition of the inocula. […] All other wells contain 150 μl sterile dH2O. • 9. Serial doubling dilutions are carried out from A to B whereby 150 μl is removed from A and placed into B and mixed well. Then take 150 μl B and place in C and mix well. This is repeated down to row G where the final 150 μl is discarded. […] The same procedure is repeated for the other 4 antifungals, carrying the dilutions across the plate i.e. […] At the final dilution in column 10, the final 150 μl is discarded. […] Inoculating Plates with E. dermatitidis CA01 • 6. Add 100 μl (total volume 200 μl) of the prepared E. dermatitidis CA01 culture to the all wells on the plate except wells H12. […] H12 will contain 100 μl water and 100 μl 2×RPMI-1640 alone, constituting an uninoculated control. • 8. The plate is read in the BioTek at OD530. • 9. Plates are then placed in a plastic box containing a Petri dish of water, sealed and incubated at 35° C. The presence of the water in the dish or on the tissue provides and environment of relatively high humidity. • 10. OD530 is then read at 72 h, 96 h, 120 h and 144 h and raw data processed using Microsoft Excel. • 11. Fractional Inhibitory Concentration (FIC) Index values are generated using MIC100 for 72 h data and MIC50 for later time points using the following formula: […]

Antifungal MIC100 (GEOMEAN): 0.59 µg/mL
Antifungal MIC50 (GEOMEAN, 96 h): 0.47 µg/mL
Antifungal MIC50 (GEOMEAN, 120 h): 0.47 µg/mL
Antifungal MIC50 (GEOMEAN, 144 h): 0.59 µg/mL
Antifungal MIC100 in Combination (GEOMEAN): 0.23 µg/mL
Antifungal MIC50 in Combination (GEOMEAN, 96 h): 0.17 µg/mL
Antifungal MIC50 in Combination (GEOMEAN, 120 h): 0.19 µg/mL
Antifungal MIC50 in Combination (GEOMEAN, 144 h): 0.23 µg/mL
Antifungal MIC100 (MEAN): 0.86 µg/mL
Antifungal MIC50 (MEAN, 96 h): 0.47 µg/mL
Antifungal MIC50 (MEAN, 120 h): 0.47 µg/mL
Antifungal MIC50 (MEAN, 144 h): 0.63 µg/mL
Antifungal MIC100 in Combination (MEAN): 0.23 µg/mL
Antifungal MIC50 in Combination (MEAN, 96 h): 0.18 µg/mL
Antifungal MIC50 in Combination (MEAN, 120 h): 0.20 µg/mL
Antifungal MIC50 in Combination (MEAN, 144 h): 0.23 µg/mL
Antifungal MIC100 (Range): 0.23 to 1.88 µg/mL
Antifungal MIC50 (Range, 96 h): 0.47 µg/mL
Antifungal MIC50 (Range, 120 h): 0.5 µg/mL
Antifungal MIC50 (Range, 144 h): 0.47 to 0.94 µg/mL
Antifungal MIC100 in Combination (Range): 0.23 µg/mL
Antifungal MIC50 in Combination (Range, 96 h): 0.12 to 0.23 µg/mL
Antifungal MIC50 in Combination (Range, 120 h): 0.12 to 0.23 µg/mL
Antifungal MIC50 in Combination (Range, 144 h): 0.23 µg/mL
SMILES: C[C@@H]1[C@H](O)[C@@H](C)/C=C/C=C/C=C/C=C/C=C/C=C/C=C/[C@H](O[C@@H]2O[C@H](C)[C@@H](O)[C@H](N)[C@@H]2O)C[C@@H]2O[C@](O)(C[C@@H](O)C[C@@H](O)[C@H](O)CC[C@@H](O)C[C@@H](O)CC(=O)O[C@H]1C)C[C@H](O)[C@H]2C(=O)O [Amphotericin B]
FICI (GEOMEAN, MIC50, 96 h): 0.63 (2)
FICI (GEOMEAN, MIC50, 120 h): 0.58 (3)
FICI (GEOMEAN, MIC50, 144 h): 0.75 (2)
FICI (GEOMEAN, MIC100, 72 h): 0.53 (1)
FICI (MEAN, MIC50, 96 h): 0.64 (2)
FICI (MEAN, MIC50, 120 h): 0.59 (3)
FICI (MEAN, MIC50, 144 h): 0.75 (2)
FICI (MEAN, MIC100, 72 h): 0.53 (1)
